According to the supplement of paper PMC10307832:

Key:
Test in all cases: relative viability (nuclei count vs DMSO), 5 days (fraction); higher = more cells survive
[1] = system: A549
Outline: (§1)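 One day after seeding in 1536-well plates, lung cancer cell lines were dosed by pin tool. Dosing was either single-drug or a fixed anchor-drug dose plus five library-drug doses (not always all listed) in √10 steps. After 5 days, nuclei were stained in one fix-and-stain step and counted on 4× images, and relative viability is the nuclei count of treated wells over that of vehicle wells, given as the median of duplicate plates.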

[2] = system: EKVX
Outline: as §1

[3] = system: HCC-15
Outline: as §1

[4] = system: HCC-44
Outline: as §1

[5] = system: LCLC-103H
Outline: as §1

[6] = system: NCI-H1395
Outline: as §1

[7] = system: NCI-H1648
Outline: as §1

[8] = system: NCI-H1755
Outline: as §1

[9] = system: UMC-11
Outline: as §1

SMILES: O=c1cc(N2CCOCC2)oc2c(-c3cccc4c3sc3ccccc34)cccc12 + Nc1ncn([C@H]2C[C@H](O)[C@@H](CO)O2)c(=O)n1 [Decitabine] (partner 2 µM)
- relative viability ([1]; first compound 0.01 µM): 0.26
- relative viability ([1]; first compound 0.03162 µM): 0.242
- relative viability ([1]; first compound 0.1 µM): 0.189
- relative viability ([1]; first compound 0.3162 µM): 0.246
- relative viability ([1]; first compound 1 µM): 0.288
- relative viability ([2]; first compound 0.01 µM): 0.355
- relative viability ([2]; first compound 0.03162 µM): 0.321
- relative viability ([2]; first compound 0.1 µM): 0.37
- relative viability ([2]; first compound 0.3162 µM): 0.282
- relative viability ([2]; first compound 1 µM): 0.336
- relative viability ([3]; first compound 0.01 µM): 0.632
- relative viability ([3]; first compound 0.03162 µM): 0.639
- relative viability ([3]; first compound 0.1 µM): 0.774
- relative viability ([3]; first compound 0.3162 µM): 0.59
- relative viability ([3]; first compound 1 µM): 0.724
- relative viability ([4]; first compound 0.01 µM): 0.962
- relative viability ([4]; first compound 0.03162 µM): 0.993
- relative viability ([4]; first compound 0.1 µM): 0.97
- relative viability ([4]; first compound 0.3162 µM): 0.96
- relative viability ([4]; first compound 1 µM): 0.986
- relative viability ([5]; first compound 0.01 µM): 0.807
- relative viability ([5]; first compound 0.03162 µM): 0.763
- relative viability ([5]; first compound 0.1 µM): 0.766
- relative viability ([5]; first compound 0.3162 µM): 0.77
- relative viability ([5]; first compound 1 µM): 0.686
- relative viability ([6]; first compound 0.03162 µM): 0.772
- relative viability ([6]; first compound 0.1 µM): 0.656
- relative viability ([6]; first compound 0.3162 µM): 0.701
- relative viability ([6]; first compound 1 µM): 0.692
- relative viability ([7]; first compound 0.03162 µM): 0.594
- relative viability ([7]; first compound 0.1 µM): 0.496
- relative viability ([7]; first compound 0.3162 µM): 0.466
- relative viability ([7]; first compound 1 µM): 0.458
- relative viability ([8]; first compound 0.01 µM): 0.755
- relative viability ([8]; first compound 0.03162 µM): 0.74
- relative viability ([8]; first compound 0.1 µM): 0.711
- relative viability ([8]; first compound 0.3162 µM): 0.696
- relative viability ([8]; first compound 1 µM): 0.719
- relative viability ([9]; first compound 0.01 µM): 0.587
- relative viability ([9]; first compound 0.03162 µM): 0.562
- relative viability ([9]; first compound 0.1 µM): 0.492
- relative viability ([9]; first compound 0.3162 µM): 0.556
- relative viability ([9]; first compound 1 µM): 0.687

SMILES: CCN(CC)CCCCNc1ncc2cc(-c3cc(OC)cc(OC)c3)c(NC(=O)NC(C)(C)C)nc2n1 + Nc1ncn([C@H]2C[C@H](O)[C@@H](CO)O2)c(=O)n1 [Decitabine] (partner 2 µM)
- relative viability ([1]; first compound 0.01 µM): 0.27
- relative viability ([1]; first compound 0.03162 µM): 0.27
- relative viability ([1]; first compound 0.1 µM): 0.312
- relative viability ([1]; first compound 0.3162 µM): 0.212
- relative viability ([1]; first compound 1 µM): 0.288
- relative viability ([2]; first compound 0.03162 µM): 0.323
- relative viability ([2]; first compound 0.1 µM): 0.329
- relative viability ([2]; first compound 0.3162 µM): 0.314
- relative viability ([2]; first compound 1 µM): 0.295
- relative viability ([3]; first compound 0.01 µM): 0.691
- relative viability ([3]; first compound 0.03162 µM): 0.635
- relative viability ([3]; first compound 0.1 µM): 0.655
- relative viability ([3]; first compound 0.3162 µM): 0.68
- relative viability ([3]; first compound 1 µM): 0.51
- relative viability ([4]; first compound 0.01 µM): 0.944
- relative viability ([4]; first compound 0.03162 µM): 0.915
- relative viability ([4]; first compound 0.1 µM): 1.02
- relative viability ([4]; first compound 0.3162 µM): 0.949
- relative viability ([4]; first compound 1 µM): 0.979
- relative viability ([5]; first compound 0.01 µM): 0.775
- relative viability ([5]; first compound 0.03162 µM): 0.782
- relative viability ([5]; first compound 0.1 µM): 0.758
- relative viability ([5]; first compound 0.3162 µM): 0.809
- relative viability ([5]; first compound 1 µM): 0.602
- relative viability ([6]; first compound 0.01 µM): 0.8
- relative viability ([6]; first compound 0.03162 µM): 0.685
- relative viability ([6]; first compound 0.1 µM): 0.743
- relative viability ([6]; first compound 0.3162 µM): 0.735
- relative viability ([6]; first compound 1 µM): 0.598
- relative viability ([7]; first compound 0.01 µM): 0.407
- relative viability ([7]; first compound 0.03162 µM): 0.565
- relative viability ([7]; first compound 0.1 µM): 0.499
- relative viability ([7]; first compound 0.3162 µM): 0.417
- relative viability ([7]; first compound 1 µM): 0.383
- relative viability ([8]; first compound 0.01 µM): 0.72
- relative viability ([8]; first compound 0.03162 µM): 0.715
- relative viability ([8]; first compound 0.1 µM): 0.712
- relative viability ([8]; first compound 0.3162 µM): 0.756
- relative viability ([8]; first compound 1 µM): 0.685
- relative viability ([9]; first compound 0.01 µM): 0.724
- relative viability ([9]; first compound 0.03162 µM): 0.615
- relative viability ([9]; first compound 0.1 µM): 0.661
- relative viability ([9]; first compound 0.3162 µM): 0.592
- relative viability ([9]; first compound 1 µM): 0.592

SMILES: O=c1cc(-c2cccc3c2Sc2ccccc2S3)oc(N2CCOCC2)c1 + Nc1ncn([C@H]2C[C@H](O)[C@@H](CO)O2)c(=O)n1 [Decitabine] (partner 2 µM)
- relative viability ([1]; first compound 0.08 µM): 0.259
- relative viability ([1]; first compound 0.253 µM): 0.325
- relative viability ([1]; first compound 0.8 µM): 0.263
- relative viability ([1]; first compound 2.53 µM): 0.106
- relative viability ([1]; first compound 8 µM): 0.334
- relative viability ([2]; first compound 0.08 µM): 0.431
- relative viability ([2]; first compound 0.253 µM): 0.34
- relative viability ([2]; first compound 0.8 µM): 0.371
- relative viability ([2]; first compound 2.53 µM): 0.37
- relative viability ([2]; first compound 8 µM): 0.349
- relative viability ([3]; first compound 0.08 µM): 0.677
- relative viability ([3]; first compound 0.253 µM): 0.807
- relative viability ([3]; first compound 0.8 µM): 0.64
- relative viability ([3]; first compound 2.53 µM): 0.589
- relative viability ([3]; first compound 8 µM): 0.579
- relative viability ([4]; first compound 0.08 µM): 0.93
- relative viability ([4]; first compound 0.253 µM): 1.02
- relative viability ([4]; first compound 0.8 µM): 0.968
- relative viability ([4]; first compound 2.53 µM): 0.88
- relative viability ([4]; first compound 8 µM): 0.965
- relative viability ([5]; first compound 0.08 µM): 0.721
- relative viability ([5]; first compound 0.253 µM): 0.716
- relative viability ([5]; first compound 0.8 µM): 0.646
- relative viability ([5]; first compound 2.53 µM): 0.675
- relative viability ([5]; first compound 8 µM): 0.702
- relative viability ([6]; first compound 0.08 µM): 0.711
- relative viability ([6]; first compound 0.253 µM): 0.825
- relative viability ([6]; first compound 0.8 µM): 0.736
- relative viability ([6]; first compound 2.53 µM): 0.718
- relative viability ([6]; first compound 8 µM): 0.763
- relative viability ([7]; first compound 0.253 µM): 0.501
- relative viability ([7]; first compound 0.8 µM): 0.553
- relative viability ([7]; first compound 8 µM): 0.54
- relative viability ([8]; first compound 0.08 µM): 0.716
- relative viability ([8]; first compound 0.253 µM): 0.792
- relative viability ([8]; first compound 0.8 µM): 0.762
- relative viability ([8]; first compound 2.53 µM): 0.688
- relative viability ([8]; first compound 8 µM): 0.79
- relative viability ([9]; first compound 0.08 µM): 0.599
- relative viability ([9]; first compound 0.253 µM): 0.567
- relative viability ([9]; first compound 0.8 µM): 0.585
- relative viability ([9]; first compound 2.53 µM): 0.613
- relative viability ([9]; first compound 8 µM): 0.712
